Literature values as cited in US6797472B1, “Variation in drug response related to polymorphisms in β2-adrenergic receptor” (Genaissance Pharmaceuticals, Inc., priority 1999, dated 2004).

Tests used:
Ile164 receptor [1] = target: T1, Ile164 receptor (Homo sapiens, UniProt P07550, T164I); conditions: previous studies
Ile164 receptor [2] = target: T1, Ile164 receptor; conditions: competition binding with [125I]cyp in the presence of GTP; reference 4

SMILES	stimulation of adenylyl cyclase by Ile164 receptor compared to Thr164 receptor (Ile164 receptor [1])	binding affinity at Ile164 receptor (Ile164 receptor [2])
CNC[C@H](O)c1ccc(O)c(O)c1 [epinephrine]	decreased stimulation	small decrease in binding affinity
NC[C@H](O)c1ccc(O)c(O)c1 [norepinephrine]	–	small decrease in binding affinity
NCCc1ccc(O)c(O)c1 [dopamine]	does not show decreased stimulation	normal binding affinities
